# Columns and labels:
# CNTNAP2−/− mutant mice = test: Three-chamber sociability test, CNTNAP2-/- mutant mice (M2); type: in vivo, mouse; conditions: 7-NI i.p. 80 mg/kg daily for 10 days, vs untreated M2
# Method: Behavioral testing started after 2 hours of treatment.
# (§1) Three-chambered sociability test (see, FIG. 4B): Sociability and preference for social novelty and social recognition were tested in a three-chambered apparatus. The subjected mouse was first placed in the central, neutral chamber and allowed to explore for 10 minutes with all the doors closed. Next, doors were opened and the mouse was allowed to freely explore the other two empty chambers (1 and 2) for an additional 10 minutes. Lack of side preference was confirmed during this habituation.
# (§2) Two cylindrical wire cages were placed, one in chamber 1 and the other in chamber 2. For the sociability test, the test animal was introduced to the middle chamber and allowed to adjust for 5 minutes. Then, an unfamiliar mouse was introduced into a wire cage in one of the side-chambers, and the other side-chamber remained empty. The time spent by the test mouse exploring the wire cage with an unfamiliar mouse inside was recorded for 5 minutes.
# In another set of tests, the potential effects of inhibiting NO on the cognitive functions was assayed on an additional mouse model of ASD-CNTNAP2−/− mutant mice. The mice were divided into three testing groups: WT mice, CNTNAP2−/− mutant mice (M2), and mutant mice that were administered with 7-NI (M2+7NI).
# SHANK3 mutant mice = test: Three-chamber sociability test, SHANK3 mutant mice; type: in vivo, mouse
# Method: as §1, §2
# Next, to examine social memory, novel mice is introduced to the empty cage and the tested mice is examined whether they are interested in the novel mice compared to the familiar.
# A dose dependent study was conducted to determine the optimal dose that may produce the greatest effect on mice behavior. The SHANK3 mutant mice (n=5 for each group) were treated with the 7-NI (i.p) at doses of 0, 20, 50, and 80 mg/kg. This was followed by a set of behavioral tests to assess the proper dose of 7-NI that can reverse the autistic phenotypes observed in this model.
# A three-chamber sociability test was conducted to evaluate the interest of mice in engaging in social interaction with a stranger mouse, as described hereinabove and shown in FIG. 4B. […] Comparing to the 50 mg/kg, although statistically the difference is not significant, the 80 mg/kg-treated group spent more time interacting with the stranger mouse.
# A 100 μL injection of the poly(sebacic acid-ricinoleic acid) (PSARA) gel formulation with 7NI was used to evaluate its effect in reversing ASD-like behaviors in SHANK3 mice. […]
# SH-SY5Y cells [1] = test: Nitrite (Griess) assay in SH-SY5Y cells; type: cell-based, human; conditions: 7-NI 100 μM 24 hours or 20 nM nNOS siRNA 24 hours
# Method: Human NB SH-SY5Y cells were obtained from the American Type Culture Collection (ATCC) and maintained in Dulbecco's modified Eagle's medium (DMEM) and Ham's F-12 (1:1) supplemented with 10% fetal bovine serum, 2 mM L-glutamine, and 100 U/ml penicillin-G/100 […] streptomycin in a humidified atmosphere (37° C., 5% CO2). Cells were plated onto 25 cm^2 and 75 cm^2 plates at a density of 7.0×10^5 and 2.1×10^6 cells/cm^2 respectively for Western blotting (WB) and 1×10^5 for immunofluorescence. The SH-SY5Y cells were treated with 100 μM 7-nitroindazole (7-NI) for 24 hours (Fujibayashi et al., 2015). This concentration was confirmed in a dose-response experiment (FIG. 14A) using an MTT viability assay.
# SH-SY5Y cells were plated in 6 well plates, as well as on 22 mm^2 coverslips at a density of 6.0×10^4 cells/cm^2 and transfected with 20 nM nNOS siRNA (NOSIHSS1072, Invitrogen) for 24 hours, with the use of Lipofectamine RNAi MAX (56530, Invitrogen) according to the manufacturer's protocol. Then cells were washed with phosphate-buffered saline (PBS) and harvested for WB and fixed for immunofluorescence (Fujibayashi et al., 2015).
# Released NO was measured with Griess assay Kit (Sigma-Aldrich, Cat. No. 23479) using the manufacturer's instructions.
# SH-SY5Y cells [2] = test: Confocal immunofluorescence of synaptophysin and 3-nitrotyrosine; type: cell-based, human; conditions: pharmacological inhibition (7-NI) or knockdown of nNOS
# Method: FIGS. 18A-C show immunofluorescence of synaptophysin and 3-nitrotyrosine in SH-SY5Y cells with inhibited nNOS activity. Cells (with or without treatment) were postfixed in 4% paraformaldehyde and then incubated with the primary rabbit monoclonal Syp (red), and either primary mouse monoclonal NeuN (green), or primary mouse monoclonal 3-Ntyr (green) antibodies, in another group of cells. Cells were incubated with their respective secondary antibodies, such as anti-mouse Alexa fluor488, or anti-rabbit Alexa fluor594, and then mounted with DAPI (Blue) in both groups of cells. The images were acquired using a confocal microscope. Groups of cells: SH-SY5Y, SH-SY5Y+7-NI, and SH-SY5Y+si-nNOS. Each group consisted of three independent sets of experiments and was run in triplicates. The initial cell seed number was ˜10^6/cm^2. FIG. 18A presents representative images of Syp and 3-Ntyr immunofluorescence. FIGS. 18B-C are bar graphs showing the relative fluorescent intensity of Syp (FIG. 18B) and N-Tyr (FIG. 18C) immunofluorescence in the 3 groups of cells. The data are presented as mean±SEM. One-way ANOVA followed by Fisher's LSD multiple comparison post hoc test was conducted. *P<0.05, **P<0.01, ***P<0.001. The scale bar is 100 μm. […]
# [3] = Solubility of 7-nitroindazole in PNL formulation of Table 1; type: physicochemical; conditions: PNL formulation of Table 1, clear liquid
# Source text: Table 1 below presents an exemplary PNL formulation according to some embodiments of the present invention.
# The formulation can be prepared by mixing the components at room or elevated temperature to form a clear liquid which 7-nitroindazole is soluble in at about 20% w/v.
# physchem = conditions: organic solvent or mixture
smiles,measurement,setting,value
"O=[N+]([O-])c1cccc2cn[nH]c12 [7-NI, 7-nitroindazole]",time interacting with the stranger mouse (three-chamber sociability),CNTNAP2−/− mutant mice,spent significantly prolonged time interacting with the stranger mouse
same,time interacting with the stranger mouse (first session),SHANK3 mutant mice; 7-NI 80 mg/kg compared to 20 mg/kg,spent significantly more time interacting with the stranger mouse
same,time interacting with the novel mouse (S2) (second session),SHANK3 mutant mice; 7-NI 80 mg/kg compared to lower doses,spent more time interacting with the novel mouse (S2)
same,dose yielding the greatest reversal of the autistic phenotypes,"SHANK3 mutant mice; doses 0, 20, 50, 80 mg/kg i.p.",80 mg/kg
same,nitrite content (Griess assay),SH-SY5Y cells [1],reduction of nitrite content
same,intensity of 3-Ntyr immunofluorescence,SH-SY5Y cells [2],significantly decreased the intensity
same,intensity of Syp immunofluorescence,SH-SY5Y cells [2],significantly decreased the intensity
same,solubility in PNL formulation,[3],about 20 % w/v
same,solubility,physchem,32 mg/mL

# From US20250255850A1, “PHARMACEUTICAL COMPOSITIONS FOR TREATING NEUROLOGICAL CONDITIONS” (YISSUM RESEARCH DEVELOPMENT COMPANY OF THE HEBREW …, priority 2021, published 2025)
